Results as given in patent US6914045B2, “Glycopeptide antibiotics” (Wyeth Holdings Corporation, priority 2001, dated 2005).
In brackets after ≈: the same amount, converted by molar mass.

How the values were obtained:
[1] = system: Enterococcus sp.; test: in vitro antibacterial evaluation, MIC by broth dilution; type: cell-based; conditions: broth dilution, 18 hours at 35° C.
Procedure, shortened: (§1)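 Following National Committee for Clinical Laboratory Standards recommendations (M7-A2), susceptibility was measured by dilution in Muller-Hinton II […]. Bacteria were seeded at 5×10^5 CFU/mL against compound concentrations from 64 down to 0.06 μg/mL.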

[2] = system: Streptococcus sp.; test: as above; type: cell-based; conditions: broth dilution, 18 hours at 35° C.
Procedure, shortened: as §1

[3] = system: Escherichia coli; test: as above; type: cell-based; conditions: 18 hours at 35° C.
Procedure, shortened: as §1

[4] = system: Staphylococcus sp.; test: as above; type: cell-based; conditions: broth dilution, 18 hours at 35° C.
Procedure, shortened: as §1

[5] = clinical pathology (serum clinical chemistry) in mice; type: in vivo; conditions: CD-1 mice, 20 mg/kg intravenously daily for 9 days, sera day 10
Experimental: 20-day-old CD-1 mice were divided into a vehicle control group (5 mice) and a treatment group (5 mice). Samples of glycopeptide antibiotics were administered at 20 mg/kg intravenously daily for 9 days.

[6] = anatomic pathology (histopathology of heart and kidney) in mice; type: in vivo; conditions: CD-1 mice, 20 mg/kg intravenously daily for 9 days, necropsy day 10, microscopic histopathology
Experimental: Samples of tissues from necropsied mice were formalin-fixed, paraffin-embedded, sectioned, stained with hematoxylin and eosin, and examined microscopically. Histopathologic findings were recorded. These findings were subjectively graded on a scale corresponding to slight, mild, moderate, marked and severe as compared to untreated controls.

## CC(c1ccccc1)C1NC(=O)CNC(=O)C(CO)NC(=O)C(C(O)C2CNC(=N)N2C2OC(CO)C(O)C(O)C2O)NC(=O)C(C(O)C2CNC(=N)N2)NC(=O)C(Cc2ccc(OC3OC(CO)C(OC4OC5COC(Cc6ccccc6)OC5C(O)C4O)C(O)C3O)cc2)NC1=O (stereo not drawn) [Example 102, Cyclo[glycyl-β-methylphenylalanyl-O-[4-O-(4,6-O-phenethylidenehexopyranosyl)-hexopyranosyl]tyrosyl-3-(2-iminoimidazolidin-4-yl)seryl-3-(3-hexopranosyl-2-iminoimidazolidin-4-yl)serylseryl]]
[1]; Enterococcus avium (GC 4558)
  MIC Enterococcus avium (GC 4558): 2 to 4 µg/mL
[1]; Enterococcus faecalis (ATCC 29212)
  MIC Enterococcus faecalis (ATCC 29212): 2 to 4 µg/mL
[1]; Enterococcus faecalis (GC 2242)
  MIC Enterococcus faecalis (GC 2242): 2 to 4 µg/mL
[1]; Enterococcus faecalis (GC 2691)
  MIC Enterococcus faecalis (GC 2691): 2 to 4 µg/mL
[1]; Enterococcus faecalis (GC 3059)
  MIC Enterococcus faecalis (GC 3059): 2 to 4 µg/mL
[1]; Enterococcus faecalis (GC 4552)
  MIC Enterococcus faecalis (GC 4552): 2 to 4 µg/mL
[1]; Enterococcus faecalis (GC 4553)
  MIC Enterococcus faecalis (GC 4553): 2 to 4 µg/mL
[1]; Enterococcus faecalis (GC 4554)
  MIC Enterococcus faecalis (GC 4554): 2 to 4 µg/mL
[1]; Enterococcus faecalis (GC 6189)
  MIC Enterococcus faecalis (GC 6189): 2 to 4 µg/mL
[1]; Enterococcus faecium (GC 2243)
  MIC Enterococcus faecium (GC 2243): 2 to 4 µg/mL
[1]; Enterococcus faecium (GC 4556)
  MIC Enterococcus faecium (GC 4556): 2 to 4 µg/mL
[1]; Enterococcus faecium (GC 4557)
  MIC Enterococcus faecium (GC 4557): 1 to 2 µg/mL
[1]; strain ATCC 29212
  MIC Enterococcus faecalis (ATCC 29212): 2 to 4 µg/mL
[1]; strain GC 2242
  MIC Enterococcus faecalis (GC 2242): 2 to 4 µg/mL
[1]; strain GC 2243
  MIC Enterococcus faecium (GC 2243): 2 to 4 µg/mL
[1]; strain GC 2691
  MIC Enterococcus faecalis (GC 2691): 2 to 4 µg/mL
[1]; strain GC 3059
  MIC Enterococcus faecalis (GC 3059): 2 to 4 µg/mL
[1]; strain GC 4552
  MIC Enterococcus faecalis (GC 4552): 2 to 4 µg/mL
[1]; strain GC 4553
  MIC Enterococcus faecalis (GC 4553): 2 to 4 µg/mL
[1]; strain GC 4554
  MIC Enterococcus faecalis (GC 4554): 2 to 4 µg/mL
[1]; strain GC 4556
  MIC Enterococcus faecium (GC 4556): 2 to 4 µg/mL
[1]; strain GC 4557
  MIC Enterococcus faecium (GC 4557): 1 to 2 µg/mL
[1]; strain GC 4558
  MIC Enterococcus avium (GC 4558): 2 to 4 µg/mL
[1]; strain GC 6189
  MIC Enterococcus faecalis (GC 6189): 2 to 4 µg/mL
[2]; Streptococcus agalactiae (GC 4564)
  MIC Streptococcus agalactiae (GC 4564): <0.12 to 0.25 µg/mL
[2]; Streptococcus pneumoniae (ATCC 6301)
  MIC Streptococcus pneumoniae (ATCC 6301): <0.06 µg/mL
[2]; Streptococcus pneumoniae (GC 1894)
  MIC Streptococcus pneumoniae (GC 1894): <0.06 µg/mL
[2]; Streptococcus pyogenes (GC 4563)
  MIC Streptococcus pyogenes (GC 4563): <0.12 to 0.25 µg/mL
[2]; strain ATCC 6301
  MIC Streptococcus pneumoniae (ATCC 6301): <0.06 µg/mL
[2]; strain GC 1894
  MIC Streptococcus pneumoniae (GC 1894): <0.06 µg/mL
[2]; strain GC 4563
  MIC Streptococcus pyogenes (GC 4563): <0.12 to 0.25 µg/mL
[2]; strain GC 4564
  MIC Streptococcus agalactiae (GC 4564): <0.12 to 0.25 µg/mL
[3]; strain ATCC 25922
  MIC Escherichia coli (ATCC 25922): 16 to 64 µg/mL
[3]; strain GC 4559
  MIC Escherichia coli (GC 4559): 16 to 32 µg/mL
[3]; strain GC 4560
  MIC Escherichia coli (GC 4560): 0.5 to 1 µg/mL
[4]
  MIC Coagulase Negative Staphylococcus (GC 4547): 1 µg/mL (≈ 0.716 µM)
  MIC Coagulase Negative Staphylococcus (GC 4548): 0.5 to 1 µg/mL
  MIC Coagulase Negative Staphylococcus (GC 4549): 0.5 to 1 µg/mL
  MIC Coagulase Negative Staphylococcus (GC 4551): 1 to 2 µg/mL
  MIC Coagulase Negative Staphylococcus (GC 6257): 0.5 µg/mL (≈ 0.358 µM)
  MIC Staphylococcus aureus (ATCC 29213): 1 to 2 µg/mL
  MIC Staphylococcus aureus (GC 1131): 2 µg/mL (≈ 1.43 µM)
  MIC Staphylococcus aureus (GC 3051): 1 µg/mL (≈ 0.716 µM)
  MIC Staphylococcus aureus (GC 3053): 1 to 2 µg/mL
  MIC Staphylococcus aureus (GC 4541): 1 to 2 µg/mL
  MIC Staphylococcus aureus (GC 4542): 0.5 to 1 µg/mL
  MIC Staphylococcus aureus (GC 4544): 1 to 2 µg/mL
  MIC Staphylococcus aureus (GC 4545): 0.5 to 1 µg/mL
  MIC Staphylococcus aureus-SMITH (GC 4543): 0.5 to 1 µg/mL
  MIC Staphylococcus haemolyticus (GC 4546): 0.5 to 1 µg/mL
[4]; strain GC 4546
  MIC Staphylococcus haemolyticus (GC 4546): 0.5 to 1 µg/mL
[4]; strain GC 4547
  MIC Coagulase Negative Staphylococcus (GC 4547): 1 µg/mL (≈ 0.716 µM)
[4]; strain GC 4548
  MIC Coagulase Negative Staphylococcus (GC 4548): 0.5 to 1 µg/mL
[4]; strain GC 4549
  MIC Coagulase Negative Staphylococcus (GC 4549): 0.5 to 1 µg/mL
[4]; strain GC 4551
  MIC Coagulase Negative Staphylococcus (GC 4551): 1 to 2 µg/mL
[4]; strain GC 6257
  MIC Coagulase Negative Staphylococcus (GC 6257): 0.5 µg/mL (≈ 0.358 µM)
[4]; strain SMITH GC 4543
  MIC Staphylococcus aureus-SMITH (GC 4543): 0.5 to 1 µg/mL
[4]; strain ATCC 29213
  MIC Staphylococcus aureus (ATCC 29213): 1 to 2 µg/mL
[4]; strain GC 1131
  MIC Staphylococcus aureus (GC 1131): 2 µg/mL (≈ 1.43 µM)
[4]; strain GC 3051
  MIC Staphylococcus aureus (GC 3051): 1 µg/mL (≈ 0.716 µM)
[4]; strain GC 3053
  MIC Staphylococcus aureus (GC 3053): 1 to 2 µg/mL
[4]; strain GC 4541
  MIC Staphylococcus aureus (GC 4541): 1 to 2 µg/mL
[4]; strain GC 4542
  MIC Staphylococcus aureus (GC 4542): 0.5 to 1 µg/mL
[4]; strain GC 4544
  MIC Staphylococcus aureus (GC 4544): 1 to 2 µg/mL
[4]; strain GC 4545
  MIC Staphylococcus aureus (GC 4545): 0.5 to 1 µg/mL
[5]
  Clinical Chemistry (Day 10) % of Control, ALT: +672%
  Clinical Chemistry (Day 10) % of Control, AST: +340%
  Clinical Chemistry (Day 10) % of Control, BUN: +249%
  Clinical Chemistry (Day 10) % of Control, Creatinine: +100%
[6]
  Anatomical Pathology (Day 10), Heart: +++
  Anatomical Pathology (Day 10), Kidney: +++
